Measurements as given in patent publication US20120295920A1, “5-AMINO-4-HYDROXYPENTOYL AMIDES” (priority 2009, published 2012).
Read-outs that look alike come from different tables or passages of the source.

Experiments:
[1] = tested on: HIV-1 Strain C (G048G/V, V082A); test: microbe, parasite or virus in culture; type: cell-based; details: clinical isolate Strain C; read-out: C EC50
Protocol: (§1) MT4-LTR-EGFP cells were obtained by transfecting MT4 cells with a selectable construct encompassing the sequences coding for the HIV long terminal repeat (LTR) as a promoter for the expression of enhanced green fluorescent protein (EGFP) and subsequent selection of permanently transfected cells.
(§2) The antiviral activity on different HIV-1 strains, was determined in a cell-based virus replication assay. Here MT4-LTR-EGFP cells (150,000 cells/ml) are infected (multiplicity of infection [MOI] of 0.0025) in the presence or absence of different inhibitor concentrations. Two methodologies for read-out were used, either quantification of GFP-fluoresence on day 3 post-infection, or quantification of cell-viability using rezazurin (as described by Fields, R. D., and M. V. Lancaster (1993) Am. Biotechnol. Lab. 11:48-50) on day 4 post infection.
(§3) In the following Table, Strains A, B, and C are clinical isolates that include the following protease inhibitor resistance mutations in the protease domain (background mutations are not mentioned).

[2] = tested on: HIV-1 Strain B (M046I, I050V); test: microbe, parasite or virus in culture; type: cell-based; details: clinical isolate Strain B; read-out: B EC50
Protocol: as §1, §2, §3

[3] = tested on: HIV-1 Strain A (M046I, I084V); test: microbe, parasite or virus in culture; type: cell-based; details: clinical isolate Strain A; read-out: A EC50
Protocol: as §1, §2, §3

HIV-1 wild-type strain = test: General antiviral assay, cell-based virus replication in MT4-LTR-EGFP cells, wild-type strain; details: wild-type strain IIIB, MT4-LTR-EGFP cells
Protocol: as §1, §2

HIV-1 IIIB = test: 50% HS-Rezazurin: antiviral assay in the presence of 50% human serum, MT-4 cells, resazurin cell viability; type: cell-based
Protocol: For the Antiviral assay in the presence of 50% human serum MT-4 cells were infected with HIV-1 IIIB at a MOI of 0.001 to 0.01 CCID50/cell in RPMI1640 medium. Following 1 h of incubation, cells were washed and plated into a 96-well plate containing serial dilutions of compound in the presence of 10% fetal calf serum (FCS), or 50% human serum. After 4 days incubation, the EC50 in the presence of 50% human serum was determined by a cell viability assay using resazurin.
The last column lists the results for the wild-type strain IIB in the presence of 50% human serum MT-4 cells.

mock-infected MT4 cells = test: General toxicity assay on mock-infected MT4 cells with CMV-EGFP reporter (CC50); type: cell-based
[4] = MT4LTR cells, read-out: TOX-MT4LTR (CC50)
[5] = mock-infected MT4 cells with CMV-EGFP reporter, read-out: TOX-MT4CMV (CC50)

SMILES | EC50 [1] [nM] | EC50 [2] [nM] | EC50 [3] [nM] | EC50 (HIV-1 wild-type strain) [nM] | EC50 (HIV-1 IIIB) [nM] | CC50 (mock-infected MT4 cells; [4]) [nM] | CC50 (mock-infected MT4 cells; [5]) [nM]
COC(=O)N[C@H](C(=O)N[C@@H](Cc1ccc(-c2ccc(OC)nc2)cc1)[C@@H](O)C[C@@H](Cc1ccccc1F)C(=O)N[C@H]1c2cccc(Cl)c2OC[C@H]1O)C(C)(C)C [Compound 45] | 0.7 | 0.8 | 1.2 | 3.5 | 5.2 | > 32000 | 
COC(=O)NC(C(=O)NC(Cc1ccc(-c2ccc(N(C)C)nc2)cc1)C(O)CC(Cc1cccc(Cl)c1)C(=O)NC1c2ccccc2OCC1O)C(C)(C)C (stereo not shown) [Compound 2] | 1.1 | 2.2 | 3.3 | 3 | 19.7 |  | > 32000
COC(=O)NC(C(=O)NC(Cc1ccc(-c2cnc(C)s2)cc1)C(O)CC(Cc1cccc(Cl)c1)C(=O)NC1c2cc(Cl)ccc2OCC1O)C(C)(C)C (stereo not shown) [Compound 6] | 1.5 | 2.7 | 3.9 | 3.2 | 15.2 |  | > 32000
COc1ccc(-c2ccc(C[C@H](NC(=O)O[C@H]3CO[C@H]4OCC[C@H]43)[C@@H](O)C[C@@H](Cc3cccc(OC(F)(F)F)c3)C(=O)N[C@H]3c4cc(Cl)ccc4OC[C@H]3O)cc2)cn1 [Compound 73] | 1.9 | 4.1 | 3.7 | 3.3 | 9.2 | > 32000 | 
COc1ccc(-c2ccc(C[C@H](NC(=O)O[C@H]3CO[C@H]4OCC[C@H]43)[C@@H](O)C[C@@H](Cc3ccccc3F)C(=O)N[C@H]3c4cc(F)ccc4OC[C@H]3O)cc2)cn1 [Compound 80] | 0.8 | 1.1 | 1.5 | 2.4 | 10.9 | > 32000 | 
Cc1cc(-c2ccc(C[C@H](NC(=O)O[C@H]3CO[C@H]4OCC[C@H]43)[C@@H](O)C[C@@H](Cc3ccccc3F)C(=O)N[C@H]3c4cc(Cl)ccc4OC[C@H]3O)cc2)cc(C)n1 [Compound 76] | 1.1 | 1.5 | 1.7 | 2.9 | 20.5 | > 32000 | 
COc1ccc(-c2ccc(C[C@H](NC(=O)O[C@H]3CO[C@H]4OCC[C@H]43)[C@@H](O)C[C@@H](Cc3ccccc3Cl)C(=O)N[C@H]3c4cc(Cl)ccc4OC[C@H]3O)cc2)cn1 [Compound 78] | 0.9 | 1.4 | 1.9 | 2.1 | 10.6 | > 32000 | 
COC(=O)N[C@H](C(=O)N[C@@H](Cc1ccc(-c2cnc(OC)nc2)cc1)[C@@H](O)C[C@@H](Cc1ccccc1F)C(=O)N[C@H]1c2cc(Cl)ccc2OC[C@H]1O)C(C)(C)C [Compound 48] | 1.3 | 2.2 | 2.6 | 3.8 | 7.5 | > 32000 | 
COC(=O)N[C@H](C(=O)N[C@@H](Cc1ccc(-c2ccc(OC)nc2)cc1)[C@@H](O)C[C@@H](Cc1cccc(OC(F)(F)F)c1)C(=O)N[C@H]1c2ccccc2OC[C@H]1O)C(C)(C)C [Compound 41] | 1.1 | 1.2 | 2.4 | 3 | 10.5 | > 32000 | > 32000
COC(=O)NC(C(=O)NC(Cc1ccc(-c2ccc(N(C)C)nc2)cc1)C(O)CC(Cc1ccccc1F)C(=O)NC1c2ccccc2OCC1O)C(C)(C)C (stereo not shown) [Compound 7] | 0.8 | 0.9 | 1.5 | 1.6 | 10.4 | > 49000 | > 32000
COC(=O)NC(C(=O)NC(Cc1ccc(-c2ccc(OC)nc2)cc1)C(O)CC(Cc1ccccc1F)C(=O)NC1c2cc(F)cc(C)c2OCC1O)C(C)(C)C (stereo not shown) [Compound 102] | 1.5 | 3.3 | 5.4 | 2.3 | 6.8 | > 32000 | 
COC(=O)N[C@H](C(=O)N[C@@H](Cc1ccc(-c2cc(C)nc(C)c2)cc1)[C@@H](O)C[C@@H](Cc1ccccc1F)C(=O)N[C@H]1c2cccc(Cl)c2OC[C@H]1O)C(C)(C)C [Compound 54] | 1.6 | 2.1 | 2.7 | 4.8 | 19.8 | > 32000 | 
COc1ccc(-c2ccc(C[C@H](NC(=O)O[C@H]3CO[C@H]4OCC[C@H]43)[C@@H](O)C[C@@H](Cc3ccccc3F)C(=O)N[C@H]3[C@H](C)CCC[C@H]3O)cc2)cn1 [Compound 82] | 0.7 | 0.8 | 1.1 | 1.8 | 5.1 | > 27000 | 
CCc1ncc(-c2ccc(C[C@H](NC(=O)[C@@H](NC(=O)OC)C(C)(C)C)[C@@H](O)C[C@@H](Cc3ccccc3F)C(=O)N[C@H](C(=O)NC)C(C)(C)C)cc2)s1 [Compound 84] | 2.4 | 3.3 | 4.7 | 6.4 | 28 |  | > 32000
COC(=O)N[C@H](C(=O)N[C@@H](Cc1ccc(-c2ccc(N(C)C)nc2)cc1)[C@@H](O)C[C@@H](Cc1ccccc1F)C(=O)N[C@H]1[C@H](C)CC[C@H]1O)C(C)(C)C [Compound 87] | 5.4 | 1.9 | 8 | 4.7 | 14.4 |  | > 32000
COCCOC(=O)N[C@H](C(=O)N[C@@H](Cc1ccc(-c2ccc(N(C)C)nc2)cc1)[C@@H](O)C[C@@H](Cc1ccccc1F)C(=O)N[C@H]1c2cc(F)ccc2OC[C@H]1O)C(C)(C)C [Compound 34] | 1.3 | 1.5 | 2 | 2.7 | 10 | > 32000 | > 32000
COC(=O)N[C@H](C(=O)N[C@@H](Cc1ccccc1)[C@@H](O)CN(Cc1ccc(-c2ccccn2)cc1)NC(=O)[C@@H](NC(=O)OC)C(C)(C)C)C(C)(C)C [ATV] | 62 | 3.3 | 59 | 7.6 | 16 | > 32000 | 26000
COC(=O)NC(C(=O)NC(Cc1ccc(-c2cnc(C)s2)cc1)C(O)CC(Cc1ccccc1F)C(=O)NC1c2cc(Cl)ccc2OCC1O)C(C)(C)C (stereo not shown) [Compound 11] | 2.1 | 3.5 | 3.9 | 4.2 | 22.4 |  | > 32000
COc1ccc(-c2ccc(CC(NC(=O)C(NC(=O)CN3CCCC3)C(C)(C)C)C(O)CC(Cc3ccccc3F)C(=O)NC3C(C)CCCC3O)cc2)cn1 (stereo not shown) [Compound 97] | 2 | 2.8 | 4.7 | 5.6 | 12.7 | > 32000 | 
COC(=O)N[C@H](C(=O)N[C@@H](Cc1ccc(-c2ccc(OC)nc2)cc1)[C@@H](O)C[C@@H](Cc1ccccc1F)C(=O)N[C@H]1c2cc(F)cc(Cl)c2OC[C@H]1O)C(C)(C)C [Compound 56] | 0.7 | 1.2 | 1.4 | 2.6 | 8.4 | > 32000 | 
COc1ccc(-c2ccc(C[C@H](NC(=O)O[C@H]3CO[C@H]4OCC[C@H]43)[C@@H](O)C[C@@H](Cc3ccccc3F)C(=O)N[C@H]3c4cccc(Cl)c4OC[C@H]3O)cc2)cn1 [Compound 75] | 0.8 | 0.9 | 1.4 | 2.4 | 9.3 | > 32000 | 
